Laboratory results as given in ChEMBL document CHEMBL1132866, “Synthesis of glycolipid analogues that disrupt binding of HIV-1 gp120 to galactosylceramide” (Bioorg Med Chem Lett, 2000).

Biological target: Envelope glycoprotein gp160 (Human immunodeficiency virus type 1 group M subtype B (isolate HXB2)(HIV-1), UniProt P04578)
Assay: Binding affinity towards HIV glycoprotein gp120

- Kd: 11.4 nM
Structure (SMILES): CCCCCCCCCCCCC/C=C/[C@@H](O)[C@H](CO[C@@H]1O[C@@H](CO)[C@H](O)[C@H](O)[C@@H]1O)NC(=O)OCCCCCCCCCCCCCCCCCCCCCCC
